Laboratory results taken from PubChem BioAssay AID180 (DTP/NCI, 2004).
“And” between values parts separate entries of the source, which are not always exact repeats. Equal values may be shown once.

Tested on: BDF1 mice, Adenocarcinoma 755 s.c., tumor weight T/C
Experiment: NCI In Vivo Anticancer Drug Screen. Data for tumor model Adenocarcinoma 755 (subcutaneous) in B6D2F1 (BDF1) mice
Details: endpoint: mean tumor weight, higher = larger tumour
How it was run: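 In vivo antitumor screen on a transplantable tumor line. Result equals the measure in compound-treated animals divided by the same measure in vehicle controls.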

[1] = dose: 40.0 mg/kg/injection, schedule: Q01DX011 (ip), vehicle: carboxymethylcellulose (CMC)
[2] = dose: 5.0 mg/kg/injection, schedule: Q01DX011 (sc), vehicle: steriod suspending solution
[3] = dose: 50.0 mg/kg/injection, schedule: Q01DX011 (sc), vehicle: steriod suspending solution
[4] = dose: 100.0 mg/kg/injection, schedule: Q01DX011 (sc), vehicle: steriod suspending solution
[5] = dose: 25.0 mg/kg/injection, schedule: Q01DX011 (ip), vehicle: methylcellulose (MC)
[6] = dose: 60.0 mg/kg/injection, schedule: Q01DX011 (ip), vehicle: carboxymethylcellulose (CMC)
[7] = dose: 10.0 mg/kg/injection, schedule: Q01DX011 (sc), vehicle: steriod suspending solution
[8] = dose: 0.5 mg/kg/injection, schedule: Q01DX011 (ip), vehicle: saline
[9] = dose: 2.0 mg/kg/injection, schedule: Q01DX011 (ip), vehicle: saline
[10] = dose: 75.0 mg/kg/injection, schedule: Q01DX011 (ip), vehicle: methylcellulose (MC)
[11] = dose: 225.0 mg/kg/injection, schedule: Q01DX011 (ip), vehicle: methylcellulose (MC)

O=C(O)CC(O)(CC(=O)O)C(=O)O.[Ga]
T/C (dose: 0.15 mg/kg/injection, schedule: Q01DX011 (ip), vehicle: carboxymethylcellulose (CMC)): 101 % of control
T/C (dose: 0.3 mg/kg/injection, schedule: Q01DX011 (ip), vehicle: carboxymethylcellulose (CMC)): 67 % of control
T/C (dose: 0.31 mg/kg/injection, schedule: Q01DX011 (ip), vehicle: carboxymethylcellulose (CMC)): 58 % of control
T/C (dose: 0.6 mg/kg/injection, schedule: Q01DX011 (ip), vehicle: carboxymethylcellulose (CMC)): 72 % of control
T/C (dose: 0.62 mg/kg/injection, schedule: Q01DX011 (ip), vehicle: carboxymethylcellulose (CMC)): 55 % of control
T/C (dose: 1.2 mg/kg/injection, schedule: Q01DX011 (ip), vehicle: carboxymethylcellulose (CMC)): 42 % of control and 62 % of control
T/C (dose: 1.25 mg/kg/injection, schedule: Q01DX011 (ip), vehicle: carboxymethylcellulose (CMC)): 25 % of control and 36 % of control
T/C (dose: 20.0 mg/kg/injection, schedule: Q01DX011 (ip), vehicle: carboxymethylcellulose (CMC)): 5 % of control and 18 % of control
T/C [1]: 5 % of control
T/C (dose: 80.0 mg/kg/injection, schedule: Q01DX011 (ip), vehicle: carboxymethylcellulose (CMC)): 2 % of control

C[C@]12CCC(=O)C=C1CC[C@@H]1[C@@H]2C(=O)C[C@@]2(C)[C@H]1CC[C@]2(O)C(=O)COS(=O)(=O)O
T/C [2]: 100 % of control
T/C [3]: 91 % of control
T/C [4]: 57 % of control

CS(=O)(=O)OCCC(=O)NCNC(=O)CCOS(C)(=O)=O
T/C (dose: 7.0 mg/kg/injection, schedule: Q01DX011 (ip), vehicle: carboxymethylcellulose (CMC)): 77 % of control
T/C (dose: 12.5 mg/kg/injection, schedule: Q01DX011 (ip), vehicle: methylcellulose (MC)): 79 % of control
T/C (dose: 14.0 mg/kg/injection, schedule: Q01DX011 (ip), vehicle: carboxymethylcellulose (CMC)): 42 % of control
T/C [5]: 39 % of control
T/C (dose: 28.0 mg/kg/injection, schedule: Q01DX011 (ip), vehicle: carboxymethylcellulose (CMC)): 4 % of control
T/C (dose: 28.0 mg/kg/injection, schedule: Q01DX011 (ip), vehicle: methylcellulose (MC)): 5 % of control
T/C (dose: 50.0 mg/kg/injection, schedule: Q01DX011 (ip), vehicle: methylcellulose (MC)): 3 % of control

Cn1c(=O)c2cc[nH]c2n(C)c1=O
T/C (dose: 30.0 mg/kg/injection, schedule: Q01DX011 (ip), vehicle: carboxymethylcellulose (CMC)): 87 % of control
T/C [6]: 100 % of control

CCCCCCCCCCCCCCCC[n+]1ccccc1
T/C (dose: 0.12 mg/kg/injection, schedule: Q01DX011 (ip), vehicle: water): 89 % of control
T/C (dose: 0.25 mg/kg/injection, schedule: Q01DX011 (ip), vehicle: water): 79 % of control
T/C (dose: 0.5 mg/kg/injection, schedule: Q01DX011 (ip), vehicle: water): 89 % of control

C[C@H]1C[C@@H]2[C@H]([C@@H](O)C[C@@]3(C)[C@H]2CC[C@]3(O)C(=O)CF)[C@@]2(C)C=CC(=O)C=C12
T/C (dose: 2.5 mg/kg/injection, schedule: Q01DX011 (sc), vehicle: steriod suspending solution): 82 % of control
T/C [2]: 57 % of control
T/C [7]: 48 % of control
T/C (dose: 21.0 mg/kg/injection, schedule: Q01DX011 (sc), vehicle: steriod suspending solution): 64 % of control
T/C (dose: 25.0 mg/kg/injection, schedule: Q01DX011 (sc), vehicle: steriod suspending solution): 91 % of control
T/C (dose: 42.0 mg/kg/injection, schedule: Q01DX011 (sc), vehicle: saline): 39 % of control
T/C (dose: 42.0 mg/kg/injection, schedule: Q01DX011 (sc), vehicle: steriod suspending solution): 12 % of control and 25 % of control (2×)
T/C [3]: 59 % of control
T/C (dose: 84.0 mg/kg/injection, schedule: Q01DX011 (sc), vehicle: saline): 61 % of control
T/C (dose: 84.0 mg/kg/injection, schedule: Q01DX011 (sc), vehicle: steriod suspending solution): 9 % of control
T/C [4]: 55 % of control
T/C (dose: 168.0 mg/kg/injection, schedule: Q01DX011 (sc), vehicle: saline): 19 % of control
T/C (dose: 168.0 mg/kg/injection, schedule: Q01DX011 (sc), vehicle: steriod suspending solution): 1 % of control
T/C (dose: 200.0 mg/kg/injection, schedule: Q01DX011 (sc), vehicle: steriod suspending solution): 57 % of control
T/C (dose: 336.0 mg/kg/injection, schedule: Q01DX011 (sc), vehicle: saline): 19 % of control
T/C (dose: 400.0 mg/kg/injection, schedule: Q01DX011 (sc), vehicle: steriod suspending solution): 23 % of control
T/C (dose: 500.0 mg/kg/injection, schedule: Q01DX011 (sc), vehicle: steriod suspending solution): 39 % of control
T/C (dose: 600.0 mg/kg/injection, schedule: Q01DX011 (sc), vehicle: steriod suspending solution): 37 % of control
T/C (dose: 700.0 mg/kg/injection, schedule: Q01DX011 (sc), vehicle: steriod suspending solution): 17 % of control

COc1cc2c(c(OC)c1OC)-c1ccc(N)c(=O)cc1[C@@H](NC(C)=O)CC2
T/C [8]: 98 % of control
T/C [9]: 32 % of control and 47 % of control
T/C (dose: 4.0 mg/kg/injection, schedule: Q01DX011 (ip), vehicle: saline): 15 % of control and 37 % of control

CC(=O)OCC(=O)[C@@]1(O)CC[C@H]2[C@@H]3C[C@H](C)C4=CC(=O)C=C[C@]4(C)[C@@]3(F)[C@@H](O)C[C@@]21C
T/C (dose: 0.06 mg/kg/injection, schedule: Q01DX011 (sc), vehicle: steriod suspending solution): 101 % of control
T/C (dose: 0.13 mg/kg/injection, schedule: Q01DX011 (sc), vehicle: steriod suspending solution): 87 % of control
T/C (dose: 4.0 mg/kg/injection, schedule: Q01DX011 (sc), vehicle: steriod suspending solution): 49 % of control
T/C [2]: 48 % of control
T/C (dose: 9.0 mg/kg/injection, schedule: Q01DX011 (sc), vehicle: steriod suspending solution): 37 % of control
T/C [7]: 34 % of control
T/C (dose: 18.0 mg/kg/injection, schedule: Q01DX011 (sc), vehicle: steriod suspending solution): 37 % of control and 51 % of control
T/C (dose: 20.0 mg/kg/injection, schedule: Q01DX011 (sc), vehicle: steriod suspending solution): 21 % of control
T/C (dose: 37.0 mg/kg/injection, schedule: Q01DX011 (sc), vehicle: steriod suspending solution): 13 % of control and 22 % of control
T/C (dose: 75.0 mg/kg/injection, schedule: Q01DX011 (sc), vehicle: steriod suspending solution): 15 % of control

Cn1c[n+](C2OC(CO)C(O)C2O)c2nc([O-])[nH]c(=O)c21 (stereo unspecified)
T/C [5]: 65 % of control
T/C [10]: 103 % of control
T/C [11]: 44 % of control

CS(=O)(=O)OCC(=O)NCCNC(=O)COS(C)(=O)=O
T/C (dose: 8.75 mg/kg/injection, schedule: Q01DX011 (ip), vehicle: carboxymethylcellulose (CMC)): 107 % of control
T/C (dose: 17.5 mg/kg/injection, schedule: Q01DX011 (ip), vehicle: carboxymethylcellulose (CMC)): 50 % of control
T/C (dose: 35.0 mg/kg/injection, schedule: Q01DX011 (ip), vehicle: carboxymethylcellulose (CMC)): 49 % of control
T/C [1]: 61 % of control
T/C [6]: 20 % of control
T/C (dose: 70.0 mg/kg/injection, schedule: Q01DX011 (ip), vehicle: carboxymethylcellulose (CMC)): 12 % of control
T/C (dose: 95.0 mg/kg/injection, schedule: Q01DX011 (ip), vehicle: carboxymethylcellulose (CMC)): 9 % of control
T/C (dose: 140.0 mg/kg/injection, schedule: Q01DX011 (ip), vehicle: carboxymethylcellulose (CMC)): 2 % of control and 6 % of control
T/C (dose: 210.0 mg/kg/injection, schedule: Q01DX011 (ip), vehicle: carboxymethylcellulose (CMC)): 7 % of control

CC/C(=C(\CC)c1ccc(OC)cc1)c1ccc(O)cc1
T/C (dose: 15.0 mg/kg/injection, schedule: Q01DX011 (sc), vehicle: steriod suspending solution): 68 % of control
T/C (dose: 30.0 mg/kg/injection, schedule: Q01DX011 (sc), vehicle: steriod suspending solution): 69 % of control
T/C (dose: 60.0 mg/kg/injection, schedule: Q01DX011 (sc), vehicle: steriod suspending solution): 40 % of control
T/C (dose: 120.0 mg/kg/injection, schedule: Q01DX011 (sc), vehicle: other): 37 % of control and 42 % of control
T/C (dose: 120.0 mg/kg/injection, schedule: Q01DX011 (sc), vehicle: steriod suspending solution): 26 % of control

CC(=O)c1cccc(NC2C(N)C(NC(=O)N(C)C)(C(C)O)C(C)(O)C2(O)COC(=O)c2c(C)cccc2O)c1 (stereo unspecified)
T/C (dose: 0.25 mg/kg/injection, schedule: Q01DX011 (ip), vehicle: saline): 36 % of control
T/C [8]: 83 % of control
T/C (dose: 1.0 mg/kg/injection, schedule: Q01DX011 (ip), vehicle: saline): 67 % of control
T/C [9]: 24 % of control

Cn1c(=O)c2[nH]c(COCc3nc4c([nH]3)c(=O)n(C)c(=O)n4C)nc2n(C)c1=O
T/C [5]: 48 % of control
T/C [10]: 65 % of control
T/C [11]: 21 % of control
